The supplement of paper PMC8882468

What was measured:
Assay in all cases: CTG-3D luminescence at 96 h relative to day-0 seeding control (ratio to day 0); higher = more growth / less cytotoxicity; PDxO 3D drug screen, 96 h, CTG-3D normalised to day-0 seeding control.
HCI-001 = tested on: HCI-001 (organoid from a triple-negative breast cancer xenograft)
HCI-003.E2 = tested on: HCI-003.E2 (organoid from an ER-positive breast cancer xenograft)
HCI-027 = tested on: HCI-027 (organoid from a triple-negative breast cancer xenograft)
HCI-012 = tested on: HCI-012 (organoid from a breast cancer xenograft)
HCI-024 = tested on: HCI-024 (organoid from a breast cancer xenograft)

Nc1ccn([C@@H]2O[C@H](CO)[C@@H](O)C2(F)F)c(=O)n1 [gemcitabine]
CTG-3D luminescence at 96 h
Settings	12.5 pM	0.00025 µM	0.005 µM	0.1 µM	1 µM	10 µM	100 µM	625 fM
HCI-001, days in culture: 240	1.56	1.26	1.1	0.596	0.86	0.454	0.527	1.22
HCI-001, days in culture: 260	2.47	0.95	1.44	0.622	0.617	0.522	0.302	1.77
HCI-001, days in culture: 269	1.5	1.62	1.4	0.602	0.42	0.735	0.331	1.53
HCI-001, days in culture: 327	1.48	0.959	1.31	0.497	0.506	0.37	0.222	1.83
HCI-001, days in culture: 346	1.31	1.2	1.1	0.33	0.429	0.5	0.259	1.1
HCI-001, days in culture: 364	1.41	1.23	1.3	0.275	0.401	0.332	0.147	1.33
HCI-012, days in culture: 143	2.04	2.09	1.86	0.136	0.104	0.118	0.054	1.61
HCI-012, days in culture: 162	2.63	2.42	1.38	0.146	0.113	0.113	0.0256	2.7
HCI-012, days in culture: 201	2.68	1.42	1.5	0.0613	0.383	0.0794	0.0454	1.69
HCI-024, days in culture: 105	1.5	1.57	1.43	0.795	0.966	0.91	0.516	1.82
HCI-024, days in culture: 122	2.2	2.2	1.93	0.864	0.97	1.31	0.459	2.9
HCI-024, days in culture: 163	1.49	1.85	1.78	1.61	1.15	0.775	0.456	2
HCI-027, days in culture: 176	2.02	1.16	1.52	0.363	0.366	0.298	0.25	2.36
HCI-027, days in culture: 194	1.78	1.42	0.983	0.145	0.284	0.28	0.115	1.66
HCI-027, days in culture: 201	2.19	1.37	0.658	0.204	0.136	0.21	0.104	2.28

HCI-003.E2
Settings	CTG-3D luminescence at 96 h
12.5 pM	2.3
0.00025 µM	2.24
0.005 µM	1.81
0.1 µM	1.35
1 µM	1.28
10 µM	1.18
100 µM	0.939
625 fM	2.08

COc1cccc2c1C(=O)c1c(O)c3c(c(O)c1C2=O)C[C@@](O)(C(=O)CO)C[C@@H]3O[C@H]1C[C@H](N)[C@H](O)[C@H](C)O1 [doxorubicin]
CTG-3D luminescence at 96 h
Settings	12.5 pM	0.00025 µM	0.005 µM	0.1 µM	1 µM	10 µM	100 µM	625 fM
HCI-001, days in culture: 240	1.83	0.976	0.995	1.06	0.795	0.102	0.0662	1.82
HCI-001, days in culture: 260	2.69	0.99	2.06	1.71	0.863	0.169	0.0518	1.54
HCI-001, days in culture: 269	1.42	1.69	1.45	1.69	0.478	0.0884	0.00519	1.42
HCI-001, days in culture: 327	1.28	1.49	1.57	1.78	1.18	0.146	0.284	1.5
HCI-001, days in culture: 346	1.4	1.22	1.02	1.01	0.949	0.141	0.182	1.14
HCI-001, days in culture: 364	1.33	1.06	1.3	0.946	0.616	0.116	0.143	1.49
HCI-012, days in culture: 143	1.78	1.93	1.8	0.35	0.0586	-0.00257	-0.0149	1.91
HCI-012, days in culture: 162	2.15	2.16	2.04	0.961	0.0655	0.00235	-0.0139	3.15
HCI-012, days in culture: 201	2.84	1.58	1.7	0.408	0.0363	0.000335	-0.0192	1.33
HCI-024, days in culture: 105	1.87	1.64	1.47	1.53	1.05	0.158	0.154	2.18
HCI-024, days in culture: 122	2.06	2.32	1.72	1.45	1.06	0.153	0.156	2.88
HCI-024, days in culture: 163	1.43	2.44	1.96	2.3	1.38	0.176	0.187	1.44
HCI-027, days in culture: 176	2.14	1.93	1.87	0.162	0.0301	0.0198	0.0148	1.53
HCI-027, days in culture: 194	1.83	1.43	1.48	0.308	0.0306	0.0259	0.0261	1.7
HCI-027, days in culture: 201	1.99	2.28	1.79	0.325	0.0185	0.0267	0.0218	2.05

HCI-003.E2
Settings	CTG-3D luminescence at 96 h
12.5 pM	2.13
0.00025 µM	2.46
0.005 µM	2.07
0.1 µM	2.22
1 µM	1.15
10 µM	0.024
100 µM	-0.00504
625 fM	2.13
